Source: article PMC8638962, “Opposing Effects of PhoPQ and PmrAB on the Properties of Salmonella enterica serovar Typhimurium: Implications on Resistance to Antimicrobial Peptides” (Biochemistry, 2021)
In brackets after ≈: the same amount, converted by molar mass. Where a SMILES comes first, the peptide text is derived from it. Where no end group is shown, it is not given here. [ ]: non-standard residue; d: D form. The star is where a group is joined. Octanoyl = CCCCCCCC(=O)*

Legend:
[1] = system: S. enterica serovar Typhimurium 14 028s PmrAB knockout; format: cell-based; settings: broth microdilution, serial twofold dilution in MNMM, 18–20 h at 37 °C with agitation, read by visible turbidity
Protocol: (§1) The antimicrobial activity of the peptides was examined in sterile 96-wells plates (Nunc F96 microtiter plates) in a final volume of 100 μL as follows. Aliquots (50 μL) of an overnight suspension-containing bacteria (late-log phase diluted 1:5000) were added to 50 μL of modified N-minimal media (MNMM) containing the peptides in a serial twofold dilution, and antibiotics, if required, to select for the specific mutant. Inhibition of growth was determined by the visibility of turbidity in comparison to blank with no growth after an incubation of 18–20 h at 37 °C with agitation. Antibacterial activity was expressed as the minimal inhibitory concentration (MIC) in which no growth could be observed.
(§2) We investigated both natural and de novo-designed AMPs (Table 1). The list includes (i) the human cathelicidin LL-37, (ii) a de novo-designed 15-mer AMP designated K6L9 and (iii) its D,L-amino acid-containing analogue, D,L-K6L9, and (iv) D,L amino acid histidine derivative, D,L-H6L9, (v) a 12-mer D,L-K5L7 and (vi) its caprylic-acid-conjugated analogue C8-D,L-K5L7, and (vii) the frog antimicrobial peptide Temporin L.[23] These peptides have different net positive charges under the experimental conditions, as well as hydrophobicity (represented by RP-HPLC retention times), as indicated in Table 1. The peptides were tested for their antibacterial activity against WT S. enterica serovar Typhimurium ATCC 14028 (S. typhimurium) and its mutants (Table 2). The minimal inhibitory concentration (MIC) was defined using a broth microdilution antimicrobial assay. S. typhimurium have been widely used for the exploration of bacterial resistance acquired from these two TCSs.[52],[53]

[2] = system: S. enterica serovar Typhimurium 14 028s phoP and PmrAB knockout; format: cell-based; settings: broth microdilution, serial twofold dilution in MNMM, 18–20 h at 37 °C with agitation, read by visible turbidity; phoP and PmrAB double knockout
Protocol: as §1, §2

[3] = system: S. enterica serovar Typhimurium 14 028s phoP knockout; format: cell-based; settings: broth microdilution, serial twofold dilution in MNMM, 18–20 h at 37 °C with agitation, read by visible turbidity
Protocol: as §1, §2

[4] = system: S. enterica serovar Typhimurium 14 028s wild-type; format: cell-based; settings: broth microdilution, serial twofold dilution in modified N-minimal media (MNMM), 18–20 h at 37 °C with agitation, read by visible turbidity; WT ATCC 14028
Protocol: as §1, §2

[5] = RP-HPLC retention as measure of hydrophobicity; format: physicochemical; settings: C18 column, linear gradient 10–90% acetonitrile in water with 0.1% TFA in 40 min, 1.8 mL/min; for retention time: RP-HPLC retention time used as measure of hydrophobicity; for relative hydrophobicity (% ACN): percent of acetonitrile at the retention time, RP-HPLC
Excerpt: The peptides were synthesized by a solid phase method on a rink amide MBHA resin using an ABI 433A automatic peptide synthesizer (Applied Biosystems). The resin-bound peptides (0.1 mequiv each) were cleaved from the resins by trifluoroacetic acid (TFA), washed with dry ether, and extracted with acetonitrile/water (50% v/v). All peptides were amidated at their C terminus. The peptides were further purified by reverse-phase high-pressure liquid chromatography (RP-HPLC) on a C18 reverse-phase Bio-Rad column (250 × 10 mm^2, 300 Å pore size, 5 μm particle size). A linear gradient of 10–90% acetonitrile in water containing 0.1% TFA (v/v) in 40 min was used at a flow rate of 1.8 mL/min. […] Electrospray mass spectroscopy confirmed their identity.[23]
as §2

Row | Compound | MIC, pmrAB-KO [1] | MIC, DKO [2] | MIC, phoP-KO [3] | MIC, WT [4] | retention time [5] | relative hydrophobicity (% ACN) [5]
1 | CCCCCCCC(=O)N[C@@H](CCCCN)C(=O)N[C@@H](CCCCN)C(=O)N[C@H](CC(C)C)C(=O)N[C@H](CC(C)C)C(=O)N[C@@H](CCCCN)C(=O)N[C@@H](CC(C)C)C(=O)N[C@@H](CC(C)C)C(=O)N[C@H](CC(C)C)C(=O)N[C@@H](CCCCN)C(=O)N[C@H](CC(C)C)C(=O)N[C@@H](CC(C)C)C(=O)N[C@@H](CCCCN)C(N)=O [C8-D,L-K5L7] (Octanoyl-KK[dL][dL]KLL[dL]K[dL]LK-NH2) | 6.25 µM (≈ 9.85 µg/mL) | 3.125 µM (≈ 4.93 µg/mL) | 3.125 µM (≈ 4.93 µg/mL) | 3.125 µM (≈ 4.93 µg/mL) | 29.1 min | 68.2 % ACN
2 | CC(C)C[C@H](NC(=O)[C@H](CC(C)C)NC(=O)[C@@H](Cc1c[nH]cn1)NC(=O)[C@H](CC(C)C)NC(=O)[C@H](CC(C)C)NC(=O)[C@H](Cc1c[nH]cn1)NC(=O)[C@@H](Cc1c[nH]cn1)NC(=O)[C@@H](CC(C)C)NC(=O)[C@H](CC(C)C)NC(=O)[C@@H](Cc1c[nH]cn1)NC(=O)[C@H](Cc1c[nH]cn1)NC(=O)[C@H](CC(C)C)NC(=O)[C@@H](CC(C)C)NC(=O)[C@H](Cc1c[nH]cn1)NC(=O)[C@@H](N)CC(C)C)C(N)=O [D,L-H6L9] (H-LH[dL]LH[dH]L[dL][dH]HLL[dH]LL-NH2; N-terminus assumed) | 50 µM (≈ 92.9 µg/mL) | 50 µM (≈ 92.9 µg/mL) | 50 µM (≈ 92.9 µg/mL) | 100 µM (≈ 186 µg/mL) | 29.3 min | 68.6 % ACN
3 | CC(C)C[C@H](NC(=O)[C@H](CCCCN)NC(=O)[C@@H](CC(C)C)NC(=O)[C@@H](CC(C)C)NC(=O)[C@H](CCCCN)NC(=O)[C@@H](N)CCCCN)C(=O)N[C@@H](CC(C)C)C(=O)N[C@H](CC(C)C)C(=O)N[C@@H](CCCCN)C(=O)N[C@H](CC(C)C)C(=O)N[C@@H](CC(C)C)C(=O)N[C@@H](CCCCN)C(N)=O [D,L-K5L7] (H-KK[dL][dL]KLL[dL]K[dL]LK-NH2; N-terminus assumed) | 12.5 µM (≈ 18.1 µg/mL) | 3.125 µM (≈ 4.53 µg/mL) | 1.56 µM (≈ 2.26 µg/mL) | 6.25 µM (≈ 9.06 µg/mL) | 23.5 min | 57 % ACN
4 | CC(C)C[C@H](NC(=O)[C@H](CC(C)C)NC(=O)[C@@H](CCCCN)NC(=O)[C@H](CC(C)C)NC(=O)[C@H](CC(C)C)NC(=O)[C@H](CCCCN)NC(=O)[C@@H](CCCCN)NC(=O)[C@@H](CC(C)C)NC(=O)[C@H](CC(C)C)NC(=O)[C@@H](CCCCN)NC(=O)[C@H](CCCCN)NC(=O)[C@H](CC(C)C)NC(=O)[C@@H](CC(C)C)NC(=O)[C@H](CCCCN)NC(=O)[C@@H](N)CC(C)C)C(N)=O [D,L-K6L9] (H-LK[dL]LK[dK]L[dL][dK]KLL[dK]LL-NH2; N-terminus assumed) | 1.56 µM (≈ 2.82 µg/mL) | 0.78 µM (≈ 1.41 µg/mL) | 0.39 µM (≈ 0.704 µg/mL) | 1.56 µM (≈ 2.82 µg/mL) | 27.7 min | 65.4 % ACN
5 | CC[C@H](C)[C@H](NC(=O)[C@H](CCCCN)NC(=O)[C@H](CCC(=O)O)NC(=O)[C@H](CCCCN)NC(=O)[C@H](CO)NC(=O)[C@H](CCCCN)NC(=O)[C@H](CCCNC(=N)N)NC(=O)[C@H](Cc1ccccc1)NC(=O)[C@H](Cc1ccccc1)NC(=O)[C@H](CC(=O)O)NC(=O)CNC(=O)[C@H](CC(C)C)NC(=O)[C@@H](N)CC(C)C)C(=O)NCC(=O)N[C@@H](CCCCN)C(=O)N[C@@H](CCC(=O)O)C(=O)N[C@@H](Cc1ccccc1)C(=O)N[C@@H](CCCCN)C(=O)N[C@@H](CCCNC(=N)N)C(=O)N[C@H](C(=O)N[C@H](C(=O)N[C@@H](CCC(N)=O)C(=O)N[C@@H](CCCNC(=N)N)C(=O)N[C@H](C(=O)N[C@@H](CCCCN)C(=O)N[C@@H](CC(=O)O)C(=O)N[C@@H](Cc1ccccc1)C(=O)N[C@@H](CC(C)C)C(=O)N[C@@H](CCCNC(=N)N)C(=O)N[C@@H](CC(N)=O)C(=O)N[C@@H](CC(C)C)C(=O)N[C@H](C(=O)N1CCC[C@H]1C(=O)N[C@@H](CCCNC(=N)N)C(=O)N[C@H](C(=O)N[C@@H](CCC(=O)O)C(=O)N[C@@H](CO)C(N)=O)[C@@H](C)O)C(C)C)[C@@H](C)CC)C(C)C)[C@@H](C)CC [LL-37, reference compound] | 6.25 µM (≈ 28.1 µg/mL) | 3.125 µM (≈ 14 µg/mL) | 1.56 µM (≈ 7.01 µg/mL) | 3.125 µM (≈ 14 µg/mL) |  | 
6 | FVQWFSKFLGRIL-NH2 [Temporin L, reference compound] | 25 µM | 25 µM | 12.5 µM | 25 µM |  | 
7 | LKLLKKLLKKLLKLL-NH2 [L-K6L9] | 3.125 µM | 3.125 µM | 0.39 µM | 1.56 µM |  | 
